Assay results reported in article PMC7066135, “The lipoprotein Pal stabilises the bacterial outer membrane during constriction by a mobilisation-and-capture mechanism” (Nature Communications, 2020).

Test system: Pal-mCherry accumulation at the septum
Assay: TIRFM of Pal-mCherry accumulation at the division septum
Assay type: cell-based
Details: dividing E. coli cells, mutant TolB; average of 30 cells
Protocol: Overnight supplemented M9-glucose (2 mM MgSO4, 0.1 mM CaCl2, 0.4% (w/v) D-glucose) cultures were diluted in fresh medium with appropriate antibiotics and IPTG for strains expressing TolA from plasmids. Cultures were grown at 37 °C to OD600 0.3. Cells were centrifuged at 7000 × g for 1 min, resuspended in 1 ml of fresh media and treated with CCCP (0.1 mM, RT for 5 min, Sigma #C2759) for PMF decoupling, sodium azide (50 µg ml^−1, RT for 30 min, Sigma #S2002) for ATPase inhibition or chloramphenicol (30 µg ml^−1, 37 °C for 30 min, Sigma #C0378) for translation inhibition. […]
Live cells were imaged using an Oxford NanoImager (ONI) superresolution microscope equipped with four laser lines (405/473/561/640 nm) and ×100 oil immersion objective (Olympus 1.49 NA). Pal-mCherry fluorescence images were acquired by scanning a 50 µm × 80 µm area with a 561 nm laser (0.2 mW) set at 49° incidence angle (100 ms exposition), resulting in a 512 × 1024 pixel image. […] Images were recorded by NimOS software associated with the ONI instrument. If not noted otherwise, each image was acquired as a 100- or 200-frame stack for brightfield and fluorescence channels, respectively. […]
All images were analysed using ImageJ software. Fluorescence distribution along x-axis of cells was determined by the plot profile function with a line width of 4 points for TIRFM images and 40 or 80 for FRAP images. […]

Question: For “TolB^AAA: Alanine-substitution of three key hydrophobic residues in E. coli TolB (Ile25Ala, Val26Ala, Ile27Ala)”, which “Pal-mCherry accumulation at division sites” value is on record?
Answer: Its value is “abolishes Pal-mCherry accumulation at the septum”.
